# Measurements from ChEMBL document CHEMBL1201862, “PubChem BioAssay data set” (2004).
#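 Method: 48-hour compound exposure of cells in 96-well plates, five concentrations, linear interpolation of endpoints. Here, GI50 denotes the concentration required for 50% inhibition of growth.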 The source made the active and inactive calls. Cut-off read from the data, not from the text of the source: active = GI50 up to about 1.1 µM and inactive = higher.
# Legend:
# Assay in all cases: NCI tumour cell line growth inhibition, 48 h
# RPMI-8226 = system: RPMI-8226
# HL-60 = system: HL-60
# HOP-18 = system: HOP-18
# CCRF-CEM = system: CCRF-CEM
# HT-29 = system: HT-29
# DLD-1 = system: DLD-1
# LXFL 529 = system: LXFL 529
# KM-20L2 = system: KM-20L2
# OVCAR-4 = system: OVCAR-4
# UACC-62 = system: UACC-62
# LOX IMVI = system: LOX IMVI
# NCI-H226 = system: NCI-H226
# HOP-62 = system: HOP-62
# SF-295 = system: SF-295
# HCT-15 = system: HCT-15
# UO-31 = system: UO-31
# SK-OV-3 = system: SK-OV-3
# M19-MEL = system: M19-MEL
# DMS-273 = system: DMS-273
# DMS-114 = system: DMS-114
# TK-10 = system: TK-10
# M14 = system: M14
# IGROV-1 = system: IGROV-1
# COLO 205 = system: COLO 205
# SF-539 = system: SF-539
# UACC-257 = system: UACC-257
# A549 = system: A549
# SW-620 = system: SW-620
# A498 = system: A498
# MOLT-4 = system: MOLT-4
# NCI-H522 = system: NCI-H522
# SF-268 = system: SF-268
# U-251 = system: U-251
# CAKI-1 = system: CAKI-1
# SK-MEL-5 = system: SK-MEL-5
# SNB-78 = system: SNB-78
# HOP-92 = system: HOP-92
# XF498 = system: XF498
# OVCAR-3 = system: OVCAR-3
# NCI-H460 = system: NCI-H460
# HCT-116 = system: HCT-116
# OVCAR-5 = system: OVCAR-5
# Malme-3M = system: Malme-3M
# K562 = system: K562
# SNB-19 = system: SNB-19
# SN12C = system: SN12C
# SR = system: SR
# RXF 393 = system: RXF 393
# KM12 = system: KM12
# NCI-H23 = system: NCI-H23
# SNB-75 = system: SNB-75
# MDA-MB-435 = system: MDA-MB-435
# BT-549 = system: BT-549
# HCC 2998 = system: HCC 2998
# EKVX = system: EKVX
# OVCAR-8 = system: OVCAR-8
# T47D = system: T47D
# MDA-N = system: MDA-N
# ACHN = system: ACHN
# MDA-MB-231 = system: MDA-MB-231
# MCF7 = system: MCF7
# 786-0 = system: 786-0
# PC-3 = system: PC-3
# SK-MEL-2 = system: SK-MEL-2
# Hs-578T = system: Hs-578T
# DU-145 = system: DU-145
# SK-MEL-28 = system: SK-MEL-28
compound,measurement,setting,value
CC[C@@]1(O)C[C@H](OC2CC(N(C)C)C(OC3CC(O)C(OC4CCC(=O)C(C)O4)C(C)O3)C(C)O2)c2c(cc3c(c2O)C(=O)c2c(O)cccc2C3=O)[C@H]1C(=O)OC (stereo partly drawn),GI50,RPMI-8226,0.0278 µM (active)
same,GI50,HL-60,0.0317 µM (active)
same,GI50,HOP-18,0.0736 µM (active)
same,GI50,CCRF-CEM,0.0184 µM (active)
same,GI50,HT-29,0.0147 µM (active)
same,GI50,DLD-1,0.0327 µM (active)
same,GI50,LXFL 529,0.00904 µM (active)
same,GI50,KM-20L2,0.0128 µM (active)
O=C(O)c1cc2sc(C(=O)O)cc2s1,GI50,OVCAR-4,> 100 µM (inactive)
same,GI50,UACC-62,> 100 µM (inactive)
same,GI50,LOX IMVI,> 100 µM (inactive)
same,GI50,NCI-H226,> 100 µM (inactive)
same,GI50,HOP-62,> 100 µM (inactive)
same,GI50,RPMI-8226,> 100 µM (inactive)
same,GI50,SF-295,> 100 µM (inactive)
same,GI50,HCT-15,> 100 µM
same,GI50,UO-31,> 10 µM (inactive)
same,GI50,SK-OV-3,> 100 µM (inactive)
same,GI50,M19-MEL,> 100 µM (inactive)
same,GI50,DMS-273,> 100 µM (inactive)
same,GI50,HL-60,> 100 µM (inactive)
same,GI50,DMS-114,> 100 µM (inactive)
same,GI50,TK-10,> 100 µM (inactive)
same,GI50,M14,> 100 µM (inactive)
same,GI50,IGROV-1,> 100 µM (inactive)
same,GI50,COLO 205,> 100 µM (inactive)
same,GI50,SF-539,> 100 µM (inactive)
same,GI50,CCRF-CEM,> 100 µM (inactive)
same,GI50,UACC-257,> 100 µM (inactive)
same,GI50,A549,> 100 µM (inactive)
same,GI50,HT-29,> 100 µM (inactive)
same,GI50,SW-620,> 100 µM (inactive)
same,GI50,A498,> 100 µM (inactive)
same,GI50,MOLT-4,> 100 µM (inactive)
same,GI50,NCI-H522,> 100 µM (inactive)
same,GI50,SF-268,> 100 µM (inactive)
same,GI50,U-251,> 100 µM (inactive)
same,GI50,CAKI-1,> 100 µM (inactive)
same,GI50,SK-MEL-5,> 100 µM (inactive)
same,GI50,SNB-78,> 100 µM (inactive)
same,GI50,HOP-92,> 100 µM (inactive)
same,GI50,XF498,> 100 µM (inactive)
same,GI50,DLD-1,> 100 µM (inactive)
same,GI50,OVCAR-3,> 100 µM (inactive)
same,GI50,NCI-H460,> 100 µM (inactive)
same,GI50,HCT-116,> 100 µM (inactive)
same,GI50,OVCAR-5,> 100 µM (inactive)
same,GI50,Malme-3M,> 100 µM (inactive)
same,GI50,K562,> 100 µM (inactive)
same,GI50,LXFL 529,> 100 µM (inactive)
same,GI50,SNB-19,> 100 µM (inactive)
same,GI50,SN12C,> 100 µM (inactive)
same,GI50,SR,> 100 µM (inactive)
same,GI50,RXF 393,> 100 µM (inactive)
same,GI50,KM12,> 100 µM (inactive)
same,GI50,KM-20L2,> 100 µM (inactive)
same,GI50,NCI-H23,> 100 µM (inactive)
same,GI50,SNB-75,> 100 µM (inactive)
C/C(=N\NC(=S)N1CCN(c2ccccn2)CC1)c1ccccn1,GI50,OVCAR-4,0.331 µM (active)
same,GI50,UACC-62,0.00646 µM (active)
same,GI50,LOX IMVI,0.0403 µM (active)
same,GI50,NCI-H226,0.649 µM (active)
same,GI50,MDA-MB-435,0.111 µM (active)
same,GI50,HOP-62,0.035 µM (active)
same,GI50,RPMI-8226,0.00681 µM (active)
same,GI50,SF-295,0.00532 µM (active)
same,GI50,BT-549,0.01 µM (active)
same,GI50,HCT-15,0.0219 µM
same,GI50,UO-31,0.998 µM (active)
same,GI50,SK-OV-3,0.0593 µM (active)
same,GI50,HCC 2998,0.931 µM (active)
same,GI50,EKVX,< 0.0154 µM (active)
same,GI50,OVCAR-8,0.00281 µM (active)
same,GI50,T47D,0.107 µM (active)
same,GI50,M19-MEL,1.01 µM (active)
same,GI50,MDA-N,0.167 µM (active)
same,GI50,DMS-273,0.00069 µM (active)
same,GI50,ACHN,< 0.0239 µM (active)
same,GI50,MDA-MB-231,0.0495 µM (active)
same,GI50,DMS-114,0.0001 µM (active)
same,GI50,TK-10,0.871 µM (active)
same,GI50,M14,0.0431 µM (active)
same,GI50,IGROV-1,0.00151 µM (active)
same,GI50,COLO 205,0.00419 µM (active)
same,GI50,SF-539,0.397 µM (active)
same,GI50,CCRF-CEM,0.00337 µM (active)
same,GI50,MCF7,0.00782 µM (active)
same,GI50,UACC-257,0.00135 µM (active)
same,GI50,A549,0.111 µM (active)
same,GI50,HT-29,0.0745 µM (active)
same,GI50,SW-620,0.017 µM (active)
same,GI50,A498,0.853 µM (active)
same,GI50,MOLT-4,0.0156 µM (active)
same,GI50,NCI-H522,0.0818 µM (active)
same,GI50,SF-268,0.193 µM (active)
same,GI50,U-251,0.00356 µM (active)
same,GI50,CAKI-1,0.0467 µM (active)
same,GI50,786-0,0.074 µM (active)
same,GI50,SK-MEL-5,0.0944 µM (active)
same,GI50,SNB-78,5.38 µM (inactive)
same,GI50,HOP-92,0.0776 µM (active)
same,GI50,XF498,0.000206 µM (active)
same,GI50,DLD-1,0.000509 µM (active)
same,GI50,OVCAR-3,0.00327 µM (active)
same,GI50,NCI-H460,0.252 µM (active)
same,GI50,HCT-116,0.00158 µM (active)
same,GI50,OVCAR-5,0.0474 µM (active)
same,GI50,Malme-3M,0.224 µM (active)
same,GI50,K562,0.00296 µM (active)
same,GI50,PC-3,0.0304 µM (active)
same,GI50,SK-MEL-2,1.25 µM (inactive)
same,GI50,LXFL 529,0.000342 µM (active)
same,GI50,Hs-578T,0.129 µM (active)
same,GI50,SNB-19,0.27 µM (active)
same,GI50,SN12C,0.0206 µM (active)
same,GI50,SR,0.0522 µM (active)
same,GI50,DU-145,1.08 µM (active)
same,GI50,SK-MEL-28,0.208 µM (active)
same,GI50,RXF 393,0.4 µM (active)
same,GI50,KM12,0.129 µM (active)
same,GI50,KM-20L2,0.000413 µM (active)
same,GI50,NCI-H23,0.022 µM (active)
same,GI50,SNB-75,3.23 µM (inactive)
